Tests used:
[1] = system: barnyard grass; test: Test Example 3: herbicidal effect by foliage application, Wagner pot (Table 18, symbol H); format: in vivo, barnyard grass (Echinochloa crus-galli); details: amount of applied herbicide 320 g/ha
Summary of the method: (§1)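 Plants were sown in alluvial soil held under 0.1–0.5 cm standing water and grown 14 days in a greenhouse at 25–30 °C. An emulsifiable formulation, water-diluted to the set dose, was then sprayed onto the foliage, and effects were scored three weeks later using previously defined criteria.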

[2] = system: Chinese sprangletop; test: Test Example 3: herbicidal effect by foliage application, Wagner pot (Table 18, symbol D); format: in vivo, chinese sprangletop (Leptochloa chinensis); details: amount of applied herbicide 320 g/ha
Summary of the method: as §1

[3] = system: rice flat sedge; test: Test Example 3: herbicidal effect by foliage application, Wagner pot (Table 18, symbol E); format: in vivo, rice flat sedge (Cyperus iria); details: amount of applied herbicide 320 g/ha
Summary of the method: as §1

[4] = system: southern crabgrass; test: Test Example 4: herbicidal effect by soil treatment (Table 19, symbol F); format: in vivo, southern crabgrass (Digitaria ciliaris); details: amount of applied herbicide 320 g/ha
Summary of the method: (§2)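 Applied as a water-diluted emulsion, the compound was sprayed onto soil covering newly sown seeds. Evaluation came three weeks after application, in a greenhouse held at 25° C. to 30° C.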

[5] = system: green foxtail; test: Test Example 4: herbicidal effect by soil treatment (Table 19, symbol G); format: in vivo, green foxtail (Setaria viridis); details: amount of applied herbicide 320 g/ha
Summary of the method: as §2

[6] = system: barnyard grass; test: Test Example 4: herbicidal effect by soil treatment (Table 19, symbol H); format: in vivo, barnyard grass (Echinochloa crus-galli); details: amount of applied herbicide 320 g/ha
Summary of the method: as §2

[7] = system: wild oat; test: Test Example 4: herbicidal effect by soil treatment (Table 19, symbol I); format: in vivo, wild oat (Avena fatua); details: amount of applied herbicide 320 g/ha
Summary of the method: as §2

[8] = system: blackgrass; test: Test Example 4: herbicidal effect by soil treatment (Table 19, symbol J); format: in vivo, blackgrass (Alopecurus myosuroides); details: amount of applied herbicide 320 g/ha
Summary of the method: as §2

[9] = system: Italian ryegrass; test: Test Example 4: herbicidal effect by soil treatment (Table 19, symbol K); format: in vivo, Italian ryegrass (Lolium multiflorum); details: amount of applied herbicide 320 g/ha
Summary of the method: as §2

[10] = system: windgrass; test: Test Example 4: herbicidal effect by soil treatment (Table 19, symbol L); format: in vivo, windgrass (Apera spica-venti); details: amount of applied herbicide 320 g/ha
Summary of the method: as §2

[11] = system: velvetleaf; test: Test Example 4: herbicidal effect by soil treatment (Table 19, symbol M); format: in vivo, velvetleaf (Abutilon theophrasti); details: amount of applied herbicide 320 g/ha
Summary of the method: as §2

[12] = system: redroot pigweed; test: Test Example 4: herbicidal effect by soil treatment (Table 19, symbol N); format: in vivo, redroot pigweed (Amaranthus retroflexus); details: amount of applied herbicide 320 g/ha
Summary of the method: as §2

[13] = system: lambsquarters; test: Test Example 4: herbicidal effect by soil treatment (Table 19, symbol O); format: in vivo, lambsquarters (Chenopodium album); details: amount of applied herbicide 320 g/ha
Summary of the method: as §2

[14] = system: chickweed; test: Test Example 4: herbicidal effect by soil treatment (Table 19, symbol P); format: in vivo, common chickweed (Stellaria media); details: amount of applied herbicide 320 g/ha
Summary of the method: as §2

[15] = system: false cleavers; test: Test Example 4: herbicidal effect by soil treatment (Table 19, symbol Q); format: in vivo, false cleavers (Galium spurium); details: amount of applied herbicide 320 g/ha
Summary of the method: as §2

[16] = system: persian speedwell; test: Test Example 4: herbicidal effect by soil treatment (Table 19, symbol R); format: in vivo, Persian speedwell (Veronica persica); details: amount of applied herbicide 320 g/ha
Summary of the method: as §2

[17] = system: southern crabgrass; test: Test Example 5: herbicidal effect by foliage application, plastic box (Table 20, symbol F); format: in vivo, southern crabgrass (Digitaria ciliaris); details: foliage application, 320 g/ha, evaluated three weeks after application
Summary of the method: (§3)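 Sow seeds spot-wise in sterilized diluvial soil; cover with ~1.5 cm soil. Grow 14 days in greenhouse, 25° C. to 30° C. Spray foliage with emulsion diluted to predetermined amount. Rate effect after 3 weeks.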

[18] = system: green foxtail; test: Test Example 5: herbicidal effect by foliage application, plastic box (Table 20, symbol G); format: in vivo, green foxtail (Setaria viridis); details: foliage application, 320 g/ha, evaluated three weeks after application
Summary of the method: as §3

[19] = system: barnyard grass; test: Test Example 5: herbicidal effect by foliage application, plastic box (Table 20, symbol H); format: in vivo, barnyard grass (Echinochloa crus-galli); details: foliage application, 320 g/ha, evaluated three weeks after application
Summary of the method: as §3

[20] = system: wild oat; test: Test Example 5: herbicidal effect by foliage application, plastic box (Table 20, symbol I); format: in vivo, wild oat (Avena fatua); details: foliage application, 320 g/ha, evaluated three weeks after application
Summary of the method: as §3

[21] = system: blackgrass; test: Test Example 5: herbicidal effect by foliage application, plastic box (Table 20, symbol J); format: in vivo, blackgrass (Alopecurus myosuroides); details: foliage application, 320 g/ha, evaluated three weeks after application
Summary of the method: as §3

[22] = system: Italian ryegrass; test: Test Example 5: herbicidal effect by foliage application, plastic box (Table 20, symbol K); format: in vivo, Italian ryegrass (Lolium multiflorum); details: foliage application, 320 g/ha, evaluated three weeks after application
Summary of the method: as §3

[23] = system: windgrass; test: Test Example 5: herbicidal effect by foliage application, plastic box (Table 20, symbol L); format: in vivo, windgrass (Apera spica-venti); details: foliage application, 320 g/ha, evaluated three weeks after application
Summary of the method: as §3

[24] = system: velvetleaf; test: Test Example 5: herbicidal effect by foliage application, plastic box (Table 20, symbol M); format: in vivo, velvetleaf (Abutilon theophrasti); details: foliage application, 320 g/ha, evaluated three weeks after application
Summary of the method: as §3

[25] = system: redroot pigweed; test: Test Example 5: herbicidal effect by foliage application, plastic box (Table 20, symbol N); format: in vivo, redroot pigweed (Amaranthus retroflexus); details: foliage application, 320 g/ha, evaluated three weeks after application
Summary of the method: as §3

[26] = system: lambsquarters; test: Test Example 5: herbicidal effect by foliage application, plastic box (Table 20, symbol O); format: in vivo, lambsquarters (Chenopodium album); details: foliage application, 320 g/ha, evaluated three weeks after application
Summary of the method: as §3

[27] = system: chickweed; test: Test Example 5: herbicidal effect by foliage application, plastic box (Table 20, symbol P); format: in vivo, common chickweed (Stellaria media); details: foliage application, 320 g/ha, evaluated three weeks after application
Summary of the method: as §3

[28] = system: persian speedwell; test: Test Example 5: herbicidal effect by foliage application, plastic box (Table 20, symbol R); format: in vivo, Persian speedwell (Veronica persica); details: foliage application, 320 g/ha, evaluated three weeks after application
Summary of the method: as §3

SMILES | herbicidal effect on H: barnyard grass [1] | herbicidal effect on D: Chinese sprangletop [2] | herbicidal effect on E: rice flat sedge [3] | F: southern crabgrass, herbicidal effect rating [4] | G: green foxtail, herbicidal effect rating [5] | H: barnyard grass, herbicidal effect rating [6] | I: wild oat, herbicidal effect rating [7] | J: blackgrass, herbicidal effect rating [8] | K: Italian ryegrass, herbicidal effect rating [9] | L: windgrass, herbicidal effect rating [10] | M: velvetleaf, herbicidal effect rating [11] | N: redroot pigweed, herbicidal effect rating [12] | O: lambsquarters, herbicidal effect rating [13] | P: chickweed, herbicidal effect rating [14] | Q: false cleavers, herbicidal effect rating [15] | R: persian speedwell, herbicidal effect rating [16] | further results
Cc1ccc2sc(-c3ccccc3)c(-c3c(O)c(C)nn(C)c3=O)c2c1 [2-132] | 0 (Herbicidal rate of 5% or less (almost no effect)) | 0 (Herbicidal rate of 5% or less (almost no effect)) | 5 (Herbicidal rate of 90% or more (almost completely withered)) | 1 (Herbicidal rate of 5% or more and less than 20%) | 3 (Herbicidal rate of 40% or more and less than 70%) | 3 (Herbicidal rate of 40% or more and less than 70%) | 0 (Herbicidal rate of 5% or less (almost no effect)) | 0 (Herbicidal rate of 5% or less (almost no effect)) | 2 (Herbicidal rate of 20% or more and less than 40%) | 0 (Herbicidal rate of 5% or less (almost no effect)) | 0 (Herbicidal rate of 5% or less (almost no effect)) | 0 (Herbicidal rate of 5% or less (almost no effect)) | 5 (Herbicidal rate of 90% or more (almost completely withered)) | 4 (Herbicidal rate of 70% or more and less than 90%) | 0 (Herbicidal rate of 5% or less (almost no effect)) | 3 (Herbicidal rate of 40% or more and less than 70%) | herbicidal effect on F: southern crabgrass [17]: 1 (Herbicidal rate of 5% or more and less than 20%); herbicidal effect on G: green foxtail [18]: 3 (Herbicidal rate of 40% or more and less than 70%); herbicidal effect on H: barnyard grass [19]: 0 (Herbicidal rate of 5% or less (almost no effect)); herbicidal effect on I: wild oat [20]: 0 (Herbicidal rate of 5% or less (almost no effect)); herbicidal effect on J: blackgrass [21]: 2 (Herbicidal rate of 20% or more and less than 40%); herbicidal effect on K: Italian ryegrass [22]: 5 (Herbicidal rate of 90% or more (almost completely withered)); herbicidal effect on L: windgrass [23]: 0 (Herbicidal rate of 5% or less (almost no effect)); herbicidal effect on M: velvetleaf [24]: 3 (Herbicidal rate of 40% or more and less than 70%); herbicidal effect on N: redroot pigweed [25]: 5 (Herbicidal rate of 90% or more (almost completely withered)); herbicidal effect on O: lambsquarters [26]: 4 (Herbicidal rate of 70% or more and less than 90%); herbicidal effect on P: chickweed [27]: 5 (Herbicidal rate of 90% or more (almost completely withered)); herbicidal effect on R: persian speedwell [28]: 5 (Herbicidal rate of 90% or more (almost completely withered))
Cc1ccc2sc(-c3ccc([N+](=O)[O-])cc3)c(-c3c(O)c(C)nn(C)c3=O)c2c1 [2-144] | 2 (Herbicidal rate of 20% or more and less than 40%) | 0 (Herbicidal rate of 5% or less (almost no effect)) | 3 (Herbicidal rate of 40% or more and less than 70%) | 2 (Herbicidal rate of 20% or more and less than 40%) | 0 (Herbicidal rate of 5% or less (almost no effect)) | 0 (Herbicidal rate of 5% or less (almost no effect)) | 0 (Herbicidal rate of 5% or less (almost no effect)) | 0 (Herbicidal rate of 5% or less (almost no effect)) | 0 (Herbicidal rate of 5% or less (almost no effect)) | 0 (Herbicidal rate of 5% or less (almost no effect)) | 0 (Herbicidal rate of 5% or less (almost no effect)) | 3 (Herbicidal rate of 40% or more and less than 70%) | 3 (Herbicidal rate of 40% or more and less than 70%) | 1 (Herbicidal rate of 5% or more and less than 20%) | 0 (Herbicidal rate of 5% or less (almost no effect)) | 2 (Herbicidal rate of 20% or more and less than 40%) | herbicidal effect on F: southern crabgrass (criteria 0-5) [17]: 0 (Herbicidal rate of 5% or less (almost no effect)); herbicidal effect on G: green foxtail (criteria 0-5) [18]: 0 (Herbicidal rate of 5% or less (almost no effect)); herbicidal effect on H: barnyard grass (criteria 0-5) [19]: 0 (Herbicidal rate of 5% or less (almost no effect)); herbicidal effect on I: wild oat (criteria 0-5) [20]: 0 (Herbicidal rate of 5% or less (almost no effect)); herbicidal effect on J: blackgrass (criteria 0-5) [21]: 0 (Herbicidal rate of 5% or less (almost no effect)); herbicidal effect on K: Italian ryegrass (criteria 0-5) [22]: 4 (Herbicidal rate of 70% or more and less than 90%); herbicidal effect on L: windgrass (criteria 0-5) [23]: 0 (Herbicidal rate of 5% or less (almost no effect)); herbicidal effect on M: velvetleaf (criteria 0-5) [24]: 2 (Herbicidal rate of 20% or more and less than 40%); herbicidal effect on N: redroot pigweed (criteria 0-5) [25]: 5 (Herbicidal rate of 90% or more (almost completely withered)); herbicidal effect on O: lambsquarters (criteria 0-5) [26]: 3 (Herbicidal rate of 40% or more and less than 70%); herbicidal effect on P: chickweed (criteria 0-5) [27]: 4 (Herbicidal rate of 70% or more and less than 90%); herbicidal effect on R: persian speedwell (criteria 0-5) [28]: 5 (Herbicidal rate of 90% or more (almost completely withered))
